Measurements reported in patent publication US7049334B2, “Enhancement of learning and memory and treatment of amnesia” (priority 2001, dated 2006).

Tests used:
[1] = test system: hippocampal slices taken from young rats; test: Plasticity induced by low-frequency stimulation (LTD) in hippocampal slices; type: cell-based, Wistar rats
Method: After decapitation, brains of either adult ([…], for the induction of long-term potentiation) or young (2–3 weeks old, for the induction of long-term depression) Wistar rats were rapidly removed, and the hippocampus was dissected out. Transverse hippocampal slices (450 μm thickness) were immediately placed in an ice-cold cutting buffer containing 124 mM NaCl, 3 mM KCl, 1.0 mM Na2HPO4, 25 mM NaHCO3, 0.5 mM CaCl2, 5.0 mM MgSO4, 10 mM glucose, saturated with 95% O2 and 5% CO2. The slices were then maintained in an interface chamber at room temperature, and perfused at flow rate of 1–2 mL/min with artificial cerebrospinal fluid (ACSF). The composition of ACSF contained 124 mM NaCl, 4.4 mM KCl, 1.0 mM Na2HPO4, 25 mM NaHCO3, 2.0 mM or 2.5 mM CaCl2, 1.0 mM MgSO4, 10 mM glucose, gassed with 95% O2 and 5% CO2. The field Excitatory Postsynaptic Potentials (fEPSP) was evoked by test pulses through a bipolar stimulating electrode placed on the Schaffer collateral/commissural pathway, and recorded from the stratum radiatum of CA1 using a glass micropipette electrode (5–10 MΩ) filled with 2 M NaCl. The test pulse duration was 100 μsec, and test responses were elicited at 0.02 Hz. To record field potentials in the cortico-amygdala pathway, a stimulating electrode was placed in the external capsule, which contained fibers from the auditory cortex to the lateral amygdala. Bicuculine (10 μM) was present in the perfusion solution when the fEPSPs of amygdala were recorded. To increase the effectiveness of fused pyrazolyl compounds that were applied through the perfusion system, the ACSF level in the recording chamber was sufficiently high to cover the hippocampal slices but not to float them. All fused pyrazolyl compounds were perfused in ACSF.
Evoked fEPSPs were recorded and data were analyzed. The initial slope of the fEPSPs was calculated, and the data were expressed as percentages of the average of the base-line slope of the fEPSPs.
Compound 1 on plasticity induced by low-frequency stimulation (LFS): LFS (900 pulses at 1 Hz) was delivered to hippocampal slices taken from young rats ([…]) to induce long-term depression (LTD). Stimulation of hippocampal slices at 1 Hz for 3 min produced no LTD of synaptic transmission. However, this short-duration LFS induced significant LTD in the presence of Compound 1 (83.4±10.9%, n=3). […] A weaker electrical stimulation at 0.02 Hz was delivered in the presence of both nitric oxide donor nitroprusside ([…]) and Compound 1 (1.6 μM). Simultaneous perfusion of the nitric oxide donor nitroprusside (30 μM) and Compound 1 (1.6 μM) induced LTD.

[2] = test system: cortico-amygdala pathway (lateral amygdala); test: LTP in cortico-amygdala pathway (fEPSP); type: cell-based, Wistar rats; details: three trains (100 Hz, 1 sec at 3 min interval); in the presence of compound 1; n=4
Method: After decapitation, brains of either adult ([…], for the induction of long-term potentiation) or young (2–3 weeks old, for the induction of long-term depression) Wistar rats were rapidly removed, and the hippocampus was dissected out. Transverse hippocampal slices (450 μm thickness) were immediately placed in an ice-cold cutting buffer containing 124 mM NaCl, 3 mM KCl, 1.0 mM Na2HPO4, 25 mM NaHCO3, 0.5 mM CaCl2, 5.0 mM MgSO4, 10 mM glucose, saturated with 95% O2 and 5% CO2. The slices were then maintained in an interface chamber at room temperature, and perfused at flow rate of 1–2 mL/min with artificial cerebrospinal fluid (ACSF). […] The test pulse duration was 100 μsec, and test responses were elicited at 0.02 Hz. To record field potentials in the cortico-amygdala pathway, a stimulating electrode was placed in the external capsule, which contained fibers from the auditory cortex to the lateral amygdala. Bicuculine (10 μM) was present in the perfusion solution when the fEPSPs of amygdala were recorded. […] Evoked fEPSPs were recorded and data were analyzed. The initial slope of the fEPSPs was calculated, and the data were expressed as percentages of the average of the base-line slope of the fEPSPs. […]

[3] = test system: mice (motor learning); test: Rotorod test; type: in vivo; details: i.p. 1 mg/kg 20 min before first trial, 28 rpm
Method: Rotorod Test: This experiment was performed with mice (male, 20–25 gm). A rotorod apparatus was a plastic cylindrical rod (3 cm in diameter×13 cm in length). The rod was supported at the ends by two walls and was 25 cm from the base of the walls. The walls at the ends of the rod were high enough so that the mice cannot climb off the rod. Three trials were performed for each experiment. Compound 1 (1 mg/kg) or vehicle was i.p. injected 20 min before the first trial. For each trial of the rotorod test, the mice were placed on the rod and timed until they fell off the rod. They were timed up to a maximum of 3 min. The interval was 10 min. The rod was turned by an electric motor at 28 rpm.
Cerebellar nitric oxide has been also reported to be involved in LTD and motor learning. See, e.g., Li et al. (1995) J. Neurophysiol. 74: 489–494. Compound 1 improving motor learning was studied. Mice were chosen for this kind of experiment. […] The performance of control mice got improvement with increasing trial numbers, with a better improvement at the third trial. […] It is obvious that Compound 1 can also improve motor learning by mainly acting on the cerebellum.

[4] = test system: rats (active avoidance); test: Active avoidance task; type: in vivo
Method: For the test of active avoidance, the rat was placed in the dark compartment, facing the door. The door was opened halfway, and the rat had 10 sec to shuttle over the door to lit compartment. Rat was not chosen for this experiment if the rat crossed to the safe side within 10 sec. Foot-shock was turned on at 10 s later. Rat escaped into safe compartment and the door was closed. The retention time on dark shock compartment was measured 48 hr later. The rats were discarded once the rats enter lit compartment within 10 s on the day of context training. Foot-shock was administered 10 s after putting in the dark compartment on day-1. Memory retention was tested on day-2.

[5] = injection 10 min before foot-shock

OCc1ccc(-c2nn(Cc3ccccc3)c3ccccc23)o1 [Compound 1, 1-benzyl-3-(5′-hydroxymethyl-2′-furyl)-indazole]
plasticity with perfusion during LFS ([1]; 1.6 μM perfused for 15 min during LFS (900 pulses at 1 Hz)): reversed the LTD plasticity into LTP
potentiation of fEPSP at 0.02 Hz stimulation, substance alone ([1]; 0.02 Hz stimulation, alone): produced no potentiation
plasticity at 0.02 Hz with nitric oxide donor nitroprusside ([1]; 0.02 Hz stimulation, simultaneous perfusion of nitroprusside (30 μM) and Compound 1 (1.6 μM)): induced LTD
fEPSP (LTD) after short-duration LFS ([1]; 1 Hz for 3 min, in the presence of Compound 1, young rats): 83.4±10.9%
duration of enduring LTP in amygdala [2]: at least 1 hr
motor coordination on a turning rotorod [3]: significantly improved motor coordination
memory enhancement effect induced by Compound 1, with KT5823 ([4]; KT5823 i.c.v. 0.2 nmole): effectively inhibited
memory enhancement effect induced by Compound 1, with L-NAME ([4]; L-NAME i.c.v. 1 mmole): effectively inhibited
escape latency from the shock- to the safe-compartment [4, 5]: decrease
retention of memory [4, 5]: noticeable increase
